From patent US20040053962A1, “Methods for inhibiting proliferation and inducing apoptosis in cancer cells” (priority 2003, published 2004)

What was measured:
[1] = tested on: Bcl-2 in MCF-7 breast cancer cells; test: Bcl-2 expression by western blotting; type: cell-based; conditions: MCF-7, LY293111 500 nM
[2] = tested on: AsPC-1 pancreatic cancer cell line; test: [3H]-thymidine incorporation (DNA synthesis), AsPC-1; type: cell-based, human; conditions: mean±SEM; for proliferation (thymidine incorporation), % control: 24 hours
Procedure: (§1) Cell culture. The following pancreatic cancer cell lines were used: MiaPaCa-2 and PANC-1 (poorly-differentiated); Capan-1 and Capan-2 (well-differentiated); and HPAF and AsPC-1 (pleomorphic). These were purchased from American Type Culture Collection (Rockville, Md.). PANC-1 and MiaPaCa-2 were grown in DMEM media; HPAF and AsPC-1 were grown in MEM media; and Capan-1 and Capan-2 were grown in-McCoy's media. Media were supplemented with 10% FBS, and the cells were grown as monolayers in a humidified atmosphere of […] and 5% CO2 at 37° C. The cells were regularly seeded into 75 cm^2 flask with media changed every other day. For experiments, cells were grown to 80% confluence, digested with trypsin-EDTA, and plated either in 12 or 24-well plates at a concentration of 50,000/ml, as appropriate.
(§2) DNA synthesis by [^3H]-Thymidine incorporation. Cells were plated in 12 or 24-well plates. After reaching 70% confluence, they were incubated in serum-free media for 24 hours, which was then replaced with fresh serum-free media with or without the appropriate concentration of leukotriene B4 receptor antagonist LY293111 (62.5-1000 nM), LTB4 (100-400 nM), or both. After the appropriate period of culture, cellular DNA synthesis was assayed by adding 0.5 μCi/well of [^3H]-methyl-thymidine and incubating for another 2 hours. Then, the cells were washed twice with PBS, fixed with 10% trichloroacetic acid (“TCA”) for 30 minutes, and solubilized by adding 0.4 M NaOH to each well. Radioactivity, indicating incorporation of ^3H-thymidine into DNA, was measured by adding a scintillation cocktail and counting on a scintillation counter (LKB RackBeta, Wallac, Turku, Finland)

[3] = tested on: Capan-2 pancreatic cancer cell line; test: [3H]-thymidine incorporation (DNA synthesis), Capan-2; type: cell-based; conditions: mean±SEM; for proliferation (thymidine incorporation), % control: 24 hours
Procedure: as §1, §2

[4] = tested on: MiaPaCa-2 pancreatic cancer cells; test: Morphological changes by phase-contrast microscopy, MiaPaCa-2; type: cell-based; conditions: MiaPaCa-2, 250 nM, as early as 4 hours after treatment; interpreted as reflecting apoptosis
Procedure: Morphological changes using light microscope. Pancreatic cancer cells grown in 75 cm^2 flasks were treated with different concentrations of LY293111 for different periods of time. They were then viewed by phase-contrast microscopy, and photographs were taken.

[5] = tested on: MiaPaCa-2 cells; test: TUNEL assay (flow cytometry), MiaPaCa-2; type: cell-based; conditions: control 1.5%
Procedure: TUNEL assay. Apoptosis was measured by flow cytometry using a terminal deoxynucleotidyl transferase-mediated deoxyuridine triphosphate nick-end labeling (“TUNEL”) assay. Cells were treated with LY293111 for the appropriate period of time, then digested with trypsin-EDTA, washed with ice-cold PBS twice, and fixed in 10% paraformaldehyde on ice for 20 minutes. Cells were then washed with PBS, permeabilized with 70% ethanol for at least 4 hours, washed again with PBS and incubated with 2.5 units of terminal deoxynucleotidyl transferase (TdT enzyme) and 100 pmol Br-dUTP in DNA labeling solution for one hour at 37° C. Cells were then rinsed twice, resuspended in 0.1 ml fluorescein labeled anti-BrdU antibody solution in the dark for 30 minutes. Then 0.5 ml propidium iodide/RNase A solution was added, and the cells analyzed by flow cytometry at 488 nm excitation.

## CCCc1c(OCCCOc2cc(O)c(-c3ccc(F)cc3)cc2CC)cccc1Oc1ccccc1C(=O)O [LY293111, 2-(2-propyl-3-(3-(2-ethyl-4-(4-fluorophenyl)-5-hydroxyphenoxy)propoxy)-phenoxy)benzoic acid]
[1]
  Bcl-2 expression (western blot): inhibited expression
[2]; AsPC-1, LY293111 62.5 nM
  proliferation (thymidine incorporation), % control: 90.6 ± 4.6 % control
[2]; AsPC-1, LY293111 125 nM
  proliferation (thymidine incorporation), % control: 72.8 ± 5.4 % control
[2]; AsPC-1, LY293111 250 nM
  proliferation (thymidine incorporation), % control: 44.5 ± 7.7 % control
[2]; AsPC-1, LY293111 500 nM, 6 h
  proliferation, % control (time course): 65.8 ± 7.7 % control
[2]; AsPC-1, LY293111 500 nM, 12 h
  proliferation, % control (time course): 44.7 ± 4.1 % control
[2]; AsPC-1, LY293111 500 nM, 24 h
  proliferation, % control (time course): 16.7 ± 2.1 % control
[2]; AsPC-1, LY293111 500 nM
  proliferation (thymidine incorporation), % control: 18.4 ± 6.9 % control
[2]; AsPC-1, LY293111 1000 nM
  proliferation (thymidine incorporation), % control: 7.3 ± 1.2 % control
[3]; Capan-2, LY293111 62.5 nM
  proliferation (thymidine incorporation), % control: 95.4 ± 8.7 % control
[3]; Capan-2, LY293111 125 nM
  proliferation (thymidine incorporation), % control: 67.3 ± 6.8 % control
[3]; Capan-2, LY293111 250 nM
  proliferation (thymidine incorporation), % control: 51.2 ± 5.8 % control
[3]; Capan-2, LY293111 500 nM, 6 h
  proliferation, % control (time course): 57.8 ± 4.3 % control
[3]; Capan-2, LY293111 500 nM, 12 h
  proliferation, % control (time course): 32.1 ± 5.6 % control
[3]; Capan-2, LY293111 500 nM, 24 h
  proliferation, % control (time course): 10.9 ± 6.0 % control
[3]; Capan-2, LY293111 500 nM
  proliferation (thymidine incorporation), % control: 15.8 ± 9.6 % control
[3]; Capan-2, LY293111 1000 nM
  proliferation (thymidine incorporation), % control: 8.9 ± 2.1 % control
[4]
  morphological changes (phase-contrast microscopy): marked morphological changes
[5]; MiaPaCa-2, 250 nM LY293111 for 24 hours
  apoptosis (TUNEL): 12.6%
[5]; MiaPaCa-2, 500 nM LY293111 for 24 hours
  apoptosis (TUNEL): 18.6%
